Test results taken from patent publication US7820650B2, “Antifungal 4-substituted 5,6-dihydro-4H-pyrrolo [1,2-a][1,4]benzodiazepines” (Janssen Pharmaceutica NV, priority 2000, dated 2010).

Key:
Test in all cases: Determination of fungal susceptibility (MIC, microdilution in CYG medium)
Assay type in all cases: cell-based
[1] = tested on: Trichophyton mentagrophytes; conditions: single isolate, 5 days at 30° C., growth (OD 405 nm) inhibited to 35% of control or less
Protocol: (§1) A panel single isolates of the dermatophytes Sporothrix schenckii; Microsporum canis; Trichophyton rubrum; Trichophyton mentagrophyte; Candida parapsilosis; Cryptococcus neoformans; and Aspergillus fumigatus were used to evaluate the activity of the test compounds in vitro. Inocula were prepared as broth cultures (yeasts) or as suspensions of fungal material made from agar slope cultures (moulds). The test compounds were pipetted from dimethylsulfoxide stock solution into water to provide a series of 10-fold dilutions. The fungal inocula were suspended in the growth medium CYG (F.C. Odds, Journal of Clinical Microbiology, 29, 2735-2740, 1991) at approximately 50,000 colony-forming units (CFU) per ml and added to the aqueous test drugs. The cultures were set up in the 96 wells of plastic microdilution plates and they were incubated for 2 days at 37° C. (Candida spp.) or for 5 days at 30° C. (other fungi). Growth in the microcultures was measured by their optical density (OD) measured at a wavelength of 405 nm. The OD for cultures with test compounds was calculated as a percentage of the OD for control cultures, i.e. the OD for cultures without test compounds. Inhibition of growth to 35% of control or less was recorded as significant inhibition. Minimal inhibitory concentration (MIC; in 10^−6 M) of some of the compounds of formula (I) for the tested species are listed in Table.

[2] = tested on: Cryptococcus neoformans; conditions: single isolate, 5 days at 30° C., growth (OD 405 nm) inhibited to 35% of control or less
Protocol: as §1

[3] = tested on: Sporothrix schenckii; conditions: single isolate, 5 days at 30° C., growth (OD 405 nm) inhibited to 35% of control or less
Protocol: as §1

[4] = tested on: Microsporum canis; conditions: single isolate, 5 days at 30° C., growth (OD 405 nm) inhibited to 35% of control or less
Protocol: as §1

[5] = tested on: Trichophyton rubrum; conditions: single isolate, 5 days at 30° C., growth (OD 405 nm) inhibited to 35% of control or less
Protocol: as §1

[6] = tested on: Aspergillus fumigatus; conditions: single isolate, 5 days at 30° C., growth (OD 405 nm) inhibited to 35% of control or less
Protocol: as §1

[7] = tested on: Candida parapsilosis; conditions: single isolate, 2 days at 37° C., growth (OD 405 nm) inhibited to 35% of control or less
Protocol: as §1

SMILES: Br.COc1ccc(C2NCc3c(Cl)cccc3-n3cccc32)cc1 (stereo not drawn) [Comp. 1]
- MIC values, Trichophyton mentagrophytes [1]: 2.1 10^−6 M
- MIC values, Cryptococcus neoformans [2]: >10 10^−6 M
- MIC values, Sporothrix schenkii [3]: >10 10^−6 M
- MIC values, Microsporum canis [4]: 5.5 10^−6 M
- MIC values, Trichophyton rubrum [5]: 2.1 10^−6 M
- MIC values, Aspergillus fumigatus [6]: 10 10^−6 M
- MIC values, Candida parapsilosis [7]: >10 10^−6 M

SMILES: Br.CCc1ccc(C2NCc3c(Cl)cccc3-n3cccc32)cc1 (stereo not drawn) [Comp. 2]
- MIC values, Trichophyton mentagrophytes [1]: 0.32 10^−6 M
- MIC values, Cryptococcus neoformans [2]: >10 10^−6 M
- MIC values, Sporothrix schenkii [3]: >10 10^−6 M
- MIC values, Microsporum canis [4]: 0.32 10^−6 M
- MIC values, Trichophyton rubrum [5]: 0.03 10^−6 M
- MIC values, Aspergillus fumigatus [6]: 3.2 10^−6 M
- MIC values, Candida parapsilosis [7]: 1 10^−6 M

SMILES: Br.FC(F)(F)c1cccc(C2NCc3c(Cl)cccc3-n3cccc32)c1 (stereo not drawn) [Comp. 3]
- MIC values, Trichophyton mentagrophytes [1]: 3.2 10^−6 M
- MIC values, Cryptococcus neoformans [2]: >10 10^−6 M
- MIC values, Sporothrix schenkii [3]: >10 10^−6 M
- MIC values, Microsporum canis [4]: 2.1 10^−6 M
- MIC values, Trichophyton rubrum [5]: 2.1 10^−6 M
- MIC values, Aspergillus fumigatus [6]: 10 10^−6 M
- MIC values, Candida parapsilosis [7]: >10 10^−6 M

SMILES: Br.CC(C)c1ccc(C2NCc3ccccc3-n3cccc32)cc1 (stereo not drawn) [Comp. 4]
- MIC values, Trichophyton mentagrophytes [1]: 3.2 10^−6 M
- MIC values, Cryptococcus neoformans [2]: >10 10^−6 M
- MIC values, Sporothrix schenkii [3]: >10 10^−6 M
- MIC values, Microsporum canis [4]: 10 10^−6 M
- MIC values, Trichophyton rubrum [5]: 3.2 10^−6 M
- MIC values, Aspergillus fumigatus [6]: >10 10^−6 M
- MIC values, Candida parapsilosis [7]: >10 10^−6 M

SMILES: Br.Cc1ccc(C2NCc3c(Cl)cccc3-n3cccc32)cc1 (stereo not drawn) [Comp. 5]
- MIC values, Trichophyton mentagrophytes [1]: 1 10^−6 M
- MIC values, Cryptococcus neoformans [2]: >10 10^−6 M
- MIC values, Sporothrix schenkii [3]: >10 10^−6 M
- MIC values, Microsporum canis [4]: 1 10^−6 M
- MIC values, Trichophyton rubrum [5]: 0.32 10^−6 M
- MIC values, Aspergillus fumigatus [6]: >10 10^−6 M
- MIC values, Candida parapsilosis [7]: >10 10^−6 M

SMILES: Br.CC(C)c1ccc(C2NCc3c(Cl)cccc3-n3cccc32)cc1 (stereo not drawn) [Comp. 6]
- MIC values, Trichophyton mentagrophytes [1]: 1 10^−6 M
- MIC values, Cryptococcus neoformans [2]: >10 10^−6 M
- MIC values, Sporothrix schenkii [3]: >10 10^−6 M
- MIC values, Microsporum canis [4]: 0.32 10^−6 M
- MIC values, Trichophyton rubrum [5]: 0.32 10^−6 M
- MIC values, Aspergillus fumigatus [6]: >10 10^−6 M
- MIC values, Candida parapsilosis [7]: 10 10^−6 M

SMILES: Br.CC(C)(C)c1ccc(C2NCc3c(Cl)cccc3-n3cccc32)cc1 (stereo not drawn) [Comp. 7]
- MIC values, Trichophyton mentagrophytes [1]: 1 10^−6 M
- MIC values, Cryptococcus neoformans [2]: >10 10^−6 M
- MIC values, Sporothrix schenkii [3]: 10 10^−6 M
- MIC values, Microsporum canis [4]: 0.32 10^−6 M
- MIC values, Trichophyton rubrum [5]: 0.1 10^−6 M
- MIC values, Aspergillus fumigatus [6]: >10 10^−6 M
- MIC values, Candida parapsilosis [7]: 10 10^−6 M

SMILES: Br.CCCCc1ccc(C2NCc3c(Cl)cccc3-n3cccc32)cc1 (stereo not drawn) [Comp. 8]
- MIC values, Trichophyton mentagrophytes [1]: 1 10^−6 M
- MIC values, Cryptococcus neoformans [2]: >10 10^−6 M
- MIC values, Sporothrix schenkii [3]: >10 10^−6 M
- MIC values, Microsporum canis [4]: 1 10^−6 M
- MIC values, Trichophyton rubrum [5]: 0.1 10^−6 M
- MIC values, Aspergillus fumigatus [6]: >10 10^−6 M
- MIC values, Candida parapsilosis [7]: >10 10^−6 M

SMILES: Br.CCCc1ccc(C2NCc3c(Cl)cccc3-n3cccc32)cc1 (stereo not drawn) [Comp. 9]
- MIC values, Trichophyton mentagrophytes [1]: 0.32 10^−6 M
- MIC values, Cryptococcus neoformans [2]: >10 10^−6 M
- MIC values, Sporothrix schenkii [3]: >10 10^−6 M
- MIC values, Microsporum canis [4]: 0.32 10^−6 M
- MIC values, Trichophyton rubrum [5]: 0.1 10^−6 M
- MIC values, Aspergillus fumigatus [6]: >10 10^−6 M
- MIC values, Candida parapsilosis [7]: 3.2 10^−6 M

SMILES: CCc1ccc(C2c3cccn3-c3cccc(Cl)c3CN2C)cc1 (stereo not drawn) [Comp. 10, 4-(4′-ethylphenyl)-5-methyl-7-chlorobenzo[1,2]-pyrrolo-[1,2a][1,4]diazepine]
- MIC values, Trichophyton mentagrophytes [1]: 10 10^−6 M
- MIC values, Cryptococcus neoformans [2]: >10 10^−6 M
- MIC values, Sporothrix schenkii [3]: >10 10^−6 M
- MIC values, Microsporum canis [4]: >10 10^−6 M
- MIC values, Trichophyton rubrum [5]: 3.2 10^−6 M
- MIC values, Aspergillus fumigatus [6]: >10 10^−6 M
- MIC values, Candida parapsilosis [7]: >10 10^−6 M

SMILES: CCc1ccc(C2NCc3cc(Cl)ccc3-n3cccc32)cc1 (stereo not drawn) [Comp. 11]
- MIC values, Trichophyton mentagrophytes [1]: 3.2 10^−6 M
- MIC values, Cryptococcus neoformans [2]: >10 10^−6 M
- MIC values, Sporothrix schenkii [3]: >10 10^−6 M
- MIC values, Microsporum canis [4]: >10 10^−6 M
- MIC values, Trichophyton rubrum [5]: 3.2 10^−6 M
- MIC values, Aspergillus fumigatus [6]: >10 10^−6 M
- MIC values, Candida parapsilosis [7]: >10 10^−6 M

SMILES: Br.Clc1cccc2c1CNC(c1ccsc1)c1cccn1-2 (stereo not drawn) [Comp. 12]
- MIC values, Trichophyton mentagrophytes [1]: >10 10^−6 M
- MIC values, Cryptococcus neoformans [2]: >10 10^−6 M
- MIC values, Sporothrix schenkii [3]: >10 10^−6 M
- MIC values, Microsporum canis [4]: >10 10^−6 M
- MIC values, Trichophyton rubrum [5]: 3.2 10^−6 M
- MIC values, Aspergillus fumigatus [6]: >10 10^−6 M
- MIC values, Candida parapsilosis [7]: >10 10^−6 M

SMILES: Br.CCc1ccc(C2NCc3ccccc3-n3cccc32)cc1 (stereo not drawn) [Comp. 13]
- MIC values, Trichophyton mentagrophytes [1]: 3.2 10^−6 M
- MIC values, Cryptococcus neoformans [2]: >10 10^−6 M
- MIC values, Sporothrix schenkii [3]: >10 10^−6 M
- MIC values, Microsporum canis [4]: >10 10^−6 M
- MIC values, Trichophyton rubrum [5]: 1 10^−6 M
- MIC values, Aspergillus fumigatus [6]: >10 10^−6 M
- MIC values, Candida parapsilosis [7]: >10 10^−6 M

SMILES: CC(C)c1ccc(C2NCc3c(F)cccc3-n3cccc32)cc1 (stereo not drawn) [Comp. 14]
- MIC values, Trichophyton mentagrophytes [1]: 1 10^−6 M
- MIC values, Cryptococcus neoformans [2]: >10 10^−6 M
- MIC values, Sporothrix schenkii [3]: >10 10^−6 M
- MIC values, Microsporum canis [4]: 10 10^−6 M
- MIC values, Trichophyton rubrum [5]: 0.32 10^−6 M
- MIC values, Aspergillus fumigatus [6]: >10 10^−6 M
- MIC values, Candida parapsilosis [7]: >10 10^−6 M

SMILES: CCc1ccc(C2NCc3c(F)cccc3-n3cccc32)cc1 (stereo not drawn) [Comp. 15]
- MIC values, Trichophyton mentagrophytes [1]: 1 10^−6 M
- MIC values, Cryptococcus neoformans [2]: >10 10^−6 M
- MIC values, Sporothrix schenkii [3]: >10 10^−6 M
- MIC values, Microsporum canis [4]: 3.2 10^−6 M
- MIC values, Trichophyton rubrum [5]: 0.32 10^−6 M
- MIC values, Aspergillus fumigatus [6]: 10 10^−6 M
- MIC values, Candida parapsilosis [7]: 10 10^−6 M

SMILES: Br.CCc1ccc(C2NCc3ccc(Cl)cc3-n3cccc32)cc1 (stereo not drawn) [Comp. 16]
- MIC values, Trichophyton mentagrophytes [1]: 1 10^−6 M
- MIC values, Cryptococcus neoformans [2]: >10 10^−6 M
- MIC values, Sporothrix schenkii [3]: >10 10^−6 M
- MIC values, Microsporum canis [4]: 1 10^−6 M
- MIC values, Trichophyton rubrum [5]: 0.1 10^−6 M
- MIC values, Aspergillus fumigatus [6]: >10 10^−6 M
- MIC values, Candida parapsilosis [7]: >10 10^−6 M

SMILES: Br.CCOc1ccc(C2NCc3ccc(Cl)cc3-n3cccc32)cc1 (stereo not drawn) [Comp. 17]
- MIC values, Trichophyton mentagrophytes [1]: 10 10^−6 M
- MIC values, Cryptococcus neoformans [2]: >10 10^−6 M
- MIC values, Sporothrix schenkii [3]: >10 10^−6 M
- MIC values, Microsporum canis [4]: >10 10^−6 M
- MIC values, Trichophyton rubrum [5]: 10 10^−6 M
- MIC values, Aspergillus fumigatus [6]: >10 10^−6 M
- MIC values, Candida parapsilosis [7]: >10 10^−6 M

SMILES: Br.CC(C)c1ccc(C2NCc3ccc(Cl)cc3-n3cccc32)cc1 (stereo not drawn) [Comp. 18]
- MIC values, Trichophyton mentagrophytes [1]: 1 10^−6 M
- MIC values, Cryptococcus neoformans [2]: >10 10^−6 M
- MIC values, Sporothrix schenkii [3]: >10 10^−6 M
- MIC values, Microsporum canis [4]: >10 10^−6 M
- MIC values, Trichophyton rubrum [5]: 1 10^−6 M
- MIC values, Aspergillus fumigatus [6]: >10 10^−6 M
- MIC values, Candida parapsilosis [7]: >10 10^−6 M
